pIC50: −log10 of the molar value. Where “and” joins values, the source holds several entries; their conditions need not be identical. Identical values can stand only once.
Test system: MALME-3M multicell spheroids, viability
Assay: Anticancer human tumor MALME-3M cell line growth inhibition [TAK];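 further: spheroids exposed to drugs for seven days before readout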;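 on viability, T/C: 100% = DMSO vehicle control viability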
Details: for viability, T/C: stronger effect = lower value
Excerpt: Combinatorial screen of targeted agents with TAK-243 and ipatasertib in multi-cell type tumor spheroids
A high-throughput screen of multi-cell type tumor spheroids was designed to identify active combinations of targeted small molecules and TAK-243 or ipatasertib. Complex spheroids include a stromal component modeled by human endothelial cells (HUVEC) and fibroblasts modeled by human mesenchymal stem cells (MSCs). The concentration ranges selected for each drug and investigational agent were based upon clinically achievable concentrations if the clinical Cmax of the agent was known.
Compounds. The drugs and investigational agents: TAK-243 (785004), ipatasertib (767898), everolimus (733504), selumetinib (741078), bortezomib (756655), trametinib (758246), ixazomib (758254), vemurafenib (761431), dabrafenib (764134), sapanisertib (764658), alpelisib (765974), and copanlisib (816437), were obtained from the National Cancer Institute (NCI) Developmental Therapeutics Program Chemical Repository. The FDA-approved anticancer drug set is available from the NCI Developmental Therapeutics Program. […] The stock solutions were prepared in dimethyl sulfoxide (DMSO, Sigma-Aldrich, St. Louis, MO, cat. D2650) at 800-fold the tested concentration and stored at -70 degrees C prior to their use. All drugs and investigational agents were tested over a range starting from a high concentration at or near the clinical Cmax and decreasing in half-log increments. If the clinical Cmax for an agent had not been determined, the highest concentration tested was 10 microM.
NCI60 Cell Culture. NCI60 cell lines were obtained from the NCI Developmental Therapeutics Program Tumor Repository. For each lot of cells, the Repository performed Applied Biosystems AmpFLSTR Identifiler testing with PCR amplification to confirm consistency with the published Identifier STR profile for each cell line. Cells were kept in continuous culture for no more than 20 passages. The optimal seeding densities for each of the cell lines at each time point assessed were determined prior to performing the concentration response studies. Briefly, the NCI60 human tumor lines were grown as monolayers in RPMI 1640 medium supplemented with 10% FBS and 2 mmol/L L-glutamine.
An additional 2 lines were from the NCI60 cell line panel including melanomas, MALME-3M and SK-MEL-2. Pooled donor human umbilical vein endothelial cells (HUVEC, Lonza, cat. CC-2519) and human mesenchymal stem cells (hMSC, Lonza, cat. PT-2501) were purchased from Lonza (Walkersville, MD).
PDMR cell lines were grown in complete medium (DC medium): Dulbecco's modified Eagle's medium (DMEM)/F12 supplemented with 5% fetal bovine serum (FBS), 2 mM L-glutamine, 100 U/mL penicillin and 100 µg/ml streptomycin, 0.4 µg/ml hydrocortisone, 10 ng/ml epidermal growth factor (EGF) recombinant human protein, 24 µg/mL adenine, and 0.1 mg/mL primocin. During culture from frozen stock vials, PDMR cells were cultured in the same medium containing 10 µM Y-27632 (see Table 3). The PDCs were cultured in complete DMEM/F12 media without 10 microM Y-27632 dihydrochloride for at least two passages prior to the screen. The pooled donor HUVEC and hMSC were cultured in endothelial cell growth medium 2 (PromoCell, Heidelberg, Germany, cat. C-22011) and mesenchymal stem cell growth medium 2 (PromoCell, cat. C-28009), respectively. For all experiments, HUVEC and hMSC were used at passages </=5.
For the pre-screen, cell seeding densities were determined from a titration spanning the range from 5,000 to 313 cells per well. The mct-spheroids including 60% malignant cells, 25% HUVEC and 15% MSC dispensed as a mixture into U-bottom Ultra-Low Attachment 384-well plates (Corning, NY)
High-throughput Drug Combination Screening.
Prior to their inoculation into 384-well plates, malignant cells, HUVEC, and hMSC were removed from T flasks using TrypLE express (Thermo Fisher Scientific, cat. 12605036) and harvested by centrifugation for 5 min at 233 x g. […]

[1] = curve of first compound, second compound 0.3 µM
[2] = curve of first compound, second compound 0.949 µM
[3] = curve of first compound, second compound 3 µM
[4] = curve of first compound, second compound 9.49 µM
[5] = curve of first compound, second compound 30 µM

Q: `CC(=O)Nc1cccc(-n2c(=O)n(C3CC3)c(=O)c3c(Nc4ccc(I)cc4F)n(C)c(=O)c(C)c32)c1` + CC(C)NCC(C(=O)N1CCN(c2ncnc3c2C(C)CC3O)CC1)c1ccc(Cl)cc1 was tested. Which pIC50 [1] did it give?
A: The pIC50 was 9.37.

Q: And the pIC50 [2]?
A: The pIC50 was 9.33.

Q: And the pIC50 [3]?
A: The pIC50 was 9.60.

Q: And the pIC50 [4]?
A: The pIC50 was 9.74.

Q: And the pIC50 [5]?
A: Its pIC50 is over 10.02.

Q: What about the viability, T/C (second compound 0.3 µM, first compound 94.9 pM) of the same compound?
A: Its viability, T/C is 107%.

Q: And the viability, T/C (second compound 0.3 µM, first compound 0.0003 µM)?
A: The viability, T/C was 62.2%.

Q: What about the viability, T/C (second compound 0.3 µM, first compound 0.000949 µM) of the same compound?
A: Its viability, T/C is 20.4%.

Q: And the viability, T/C (second compound 0.3 µM, first compound 0.003 µM)?
A: Its viability, T/C is 14.8%.

Q: And the viability, T/C (second compound 0.3 µM, first compound 0.00949 µM)?
A: The viability, T/C was 10.7%.

Q: What about the viability, T/C (second compound 0.3 µM, first compound 0.03 µM) of the same compound?
A: The viability, T/C was 4.75%.

Q: What about the viability, T/C (second compound 0.949 µM, first compound 94.9 pM) of the same compound?
A: The viability, T/C was 99.9%.

Q: What about the viability, T/C (second compound 0.949 µM, first compound 0.0003 µM) of the same compound?
A: Its viability, T/C is 68.3%.

Q: And the viability, T/C (second compound 0.949 µM, first compound 0.000949 µM)?
A: The viability, T/C was 20.4%.

Q: What about the viability, T/C (second compound 0.949 µM, first compound 0.003 µM) of the same compound?
A: The viability, T/C was 13.9%.

Q: And the viability, T/C (second compound 0.949 µM, first compound 0.00949 µM)?
A: Its viability, T/C is 9.51%.

Q: What about the viability, T/C (second compound 0.949 µM, first compound 0.03 µM) of the same compound?
A: Its viability, T/C is 5.18%.

Q: And the viability, T/C (second compound 3 µM, first compound 94.9 pM)?
A: Its viability, T/C is 84.4%.

Q: And the viability, T/C (second compound 3 µM, first compound 0.0003 µM)?
A: The viability, T/C was 44.2%.

Q: What about the viability, T/C (second compound 3 µM, first compound 0.000949 µM) of the same compound?
A: Its viability, T/C is 19.2%.

Q: And the viability, T/C (second compound 3 µM, first compound 0.003 µM)?
A: The viability, T/C was 11.1%.

Q: And the viability, T/C (second compound 3 µM, first compound 0.00949 µM)?
A: The viability, T/C was 7.71%.

Q: And the viability, T/C (second compound 3 µM, first compound 0.03 µM)?
A: The viability, T/C was 2.69%.

Q: And the viability, T/C (second compound 9.49 µM, first compound 94.9 pM)?
A: The viability, T/C was 70.4%.

Q: And the viability, T/C (second compound 9.49 µM, first compound 0.0003 µM)?
A: Its viability, T/C is 33.8%.

Q: What about the viability, T/C (second compound 9.49 µM, first compound 0.000949 µM) of the same compound?
A: The viability, T/C was 15.5%.

Q: And the viability, T/C (second compound 9.49 µM, first compound 0.003 µM)?
A: Its viability, T/C is 10.1%.

Q: What about the viability, T/C (second compound 9.49 µM, first compound 0.00949 µM) of the same compound?
A: The viability, T/C was 4.94%.

Q: And the viability, T/C (second compound 9.49 µM, first compound 0.03 µM)?
A: Its viability, T/C is 1.67%.

Q: And the viability, T/C (second compound 30 µM, first compound 94.9 pM)?
A: The viability, T/C was 44.2%.

Q: What about the viability, T/C (second compound 30 µM, first compound 0.0003 µM) of the same compound?
A: Its viability, T/C is 25%.

Q: And the viability, T/C (second compound 30 µM, first compound 0.000949 µM)?
A: Its viability, T/C is 10.5%.

Q: What about the viability, T/C (second compound 30 µM, first compound 0.003 µM) of the same compound?
A: Its viability, T/C is 4.22%.

Q: What about the viability, T/C (second compound 30 µM, first compound 0.00949 µM) of the same compound?
A: Its viability, T/C is 2.32%.

Q: And the viability, T/C (second compound 30 µM, first compound 0.03 µM)?
A: The viability, T/C was 0.3%.

Q: What does the source list for `CC(=O)Nc1cccc(-n2c(=O)n(C3CC3)c(=O)c3c(Nc4ccc(I)cc4F)n(C)c(=O)c(C)c32)c1`?
A: viability, T/C (compound 94.9 pM): 92.9% and 86.3%; viability, T/C (compound 0.0003 µM): 48.6% and 49.9%; viability, T/C (compound 0.000949 µM): 20.2% and 18.5%; viability, T/C (compound 0.003 µM): 15.9% and 15.3%; viability, T/C (compound 0.00949 µM): 9.62% and 9.1%; viability, T/C (compound 0.03 µM): 5.56% and 5.65%; pIC50 (curve of compound): 9.55 and 9.53

Q: What does the source list for `CC(C)n1nc(-c2ccc3oc(N)nc3c2)c2c(N)ncnc21` + CC(C)NCC(C(=O)N1CCN(c2ncnc3c2C(C)CC3O)CC1)c1ccc(Cl)cc1?
A: pIC50 [1]: 7.92; pIC50 [2]: 8.11; pIC50 [3]: 8.28; pIC50 [4]: 8.74; pIC50 [5]: > 9.50; viability, T/C (second compound 0.3 µM, first compound 0.000316 µM): 87.8%; viability, T/C (second compound 0.3 µM, first compound 0.001 µM): 76.1%; viability, T/C (second compound 0.3 µM, first compound 0.00316 µM): 69.3%; viability, T/C (second compound 0.3 µM, first compound 0.01 µM): 55.7%; viability, T/C (second compound 0.3 µM, first compound 0.0316 µM): 31.3%; viability, T/C (second compound 0.3 µM, first compound 0.1 µM): 11.2%; viability, T/C (second compound 0.949 µM, first compound 0.000316 µM): 81.6%; viability, T/C (second compound 0.949 µM, first compound 0.001 µM): 74.7%; viability, T/C (second compound 0.949 µM, first compound 0.00316 µM): 65.6%; viability, T/C (second compound 0.949 µM, first compound 0.01 µM): 46.6%; viability, T/C (second compound 0.949 µM, first compound 0.0316 µM): 23.1%; viability, T/C (second compound 0.949 µM, first compound 0.1 µM): 10%; viability, T/C (second compound 3 µM, first compound 0.000316 µM): 67.6%; viability, T/C (second compound 3 µM, first compound 0.001 µM): 61.1%; viability, T/C (second compound 3 µM, first compound 0.00316 µM): 52.4%; viability, T/C (second compound 3 µM, first compound 0.01 µM): 45.8%; viability, T/C (second compound 3 µM, first compound 0.0316 µM): 14.5%; viability, T/C (second compound 3 µM, first compound 0.1 µM): 6.89%; viability, T/C (second compound 9.49 µM, first compound 0.000316 µM): 62%; viability, T/C (second compound 9.49 µM, first compound 0.001 µM): 56.7%; viability, T/C (second compound 9.49 µM, first compound 0.00316 µM): 43.7%; viability, T/C (second compound 9.49 µM, first compound 0.01 µM): 22.5%; viability, T/C (second compound 9.49 µM, first compound 0.0316 µM): 9.06%; viability, T/C (second compound 9.49 µM, first compound 0.1 µM): 4.23%; viability, T/C (second compound 30 µM, first compound 0.000316 µM): 36.5%; viability, T/C (second compound 30 µM, first compound 0.001 µM): 37.5%; viability, T/C (second compound 30 µM, first compound 0.00316 µM): 28.6%; viability, T/C (second compound 30 µM, first compound 0.01 µM): 17.2%; viability, T/C (second compound 30 µM, first compound 0.0316 µM): 8.52%; viability, T/C (second compound 30 µM, first compound 0.1 µM): 4.01%
